Earlier results in patent US11066360B2, “Human plasma kallikrein inhibitors” (priority 2015, dated 2021).
Where a SMILES comes first, the peptide text is derived from it.

Experiments:
[1] = system: rat models of arthritis
[2] = system: LPS- or bacterial-induced sepsis in animals
[3] = system: patients with hereditary angioedema (HAE); settings: human, in vivo
[4] = system: mouse model of middle cerebral artery occlusion (MCAO)
[5] = system: sepsis patients

Molecule: Cl.NCC1CCC(C(=O)N[C@@H](Cc2ccccc2)C(=O)Nc2ccc(CC(=O)O)cc2)CC1 (some centres unmarked) [PKSI-527]
- joint swelling [1]: reduce

Molecule: NC(N)=NCCC[C@H](NC(=O)[C@H](Cc1ccccc1)NC(=O)[C@H]1CCCN1)C(=O)CCl [CMK, H-D-Pro-Phe-Arg-chloromethylketone] (HELM PEPTIDE1{[dP].F.R.[ClC[*:1]]}$$$$V2.0)
- lesions [2]: reduce
- vascular permeability in multiple organs [2]: reduce

Molecule: NC(N)=NCCC[C@@H](N)C(=O)N[C@@H](CCCN=C(N)N)C(=O)N1CCC[C@H]1C(=O)N1C[C@H](O)C[C@H]1C(=O)NCC(=O)N[C@@H](Cc1cccs1)C(=O)N[C@@H](CO)C(=O)N1Cc2ccccc2C[C@@H]1C(=O)N1[C@H](C(=O)N[C@@H](CCCN=C(N)N)C(=O)O)C[C@@H]2CCCC[C@@H]21 [Icatibant]
- treating HAE [3]: effective

Molecule: C1-inhibitor: a physiological inhibitor (C1-inhibitor) [Compound C1-inhibitor]
- infarct size [4]: reduced
- lesions [2]: reduce
- vascular permeability in multiple organs [2]: reduce
- clinical improvement in sepsis patients [5]: Clinical improvement
